Assay results published in patent publication US20150034084A1, “[…] NITRIC OXIDE FOR TREATING RESPIRATORY DISEASES” (Advanced Inhalation Therapies (AIT) Ltd., priority 2012, published 2015).

Columns and labels:
S. maltophilia = settings: 200 ppm gNO, saline; cited from earlier work
[1] = system: all microorganisms tested; settings: 200 ppm gNO, cited from earlier work
[2] = continuous delivery of 80 ppm gNO; cited from earlier work
Group B Streptococci = settings: 200 ppm gNO, saline; cited from earlier work
E. Coli = settings: 200 ppm gNO, saline; cited from earlier work
Ang-1 and Ang-2 = experiment: Phase I safety study: plasma angiopoietins (vascular endothelial activation); assay type: in vivo, human; settings: 160 ppm gNO inhalation
Description: After obtaining informed consent, treatment was initiated within 5 days of enrollment. Subjects were housed in a hospital ward and received 160 ppm gNO for 30 minutes every four hours (Q4h), five times a day, for five consecutive days by inhalation. Subjects returned for follow-up evaluations 3, 7 and 21 days after the final gNO administration. Subject safety was determined by monitoring vital signs, methemoglobin levels, lung function, blood chemistry, hematology, prothrombin time, inflammatory cytokine/chemokines levels and endothelial activation. These parameters were compared to baseline and at various time-points during and after gNO administration.
Hematological assessment included a complete blood count and differentials (hemoglobin, hematocrit, red blood cell count, white blood cell count, white blood cell differential, and platelet count) were obtained in order to monitor blood chemistry, hematology and inflammation measurements. The blood chemistry profile included serum creatinine, and liver function tests such as aspartate aminotransferase (AST) serum glutamic oxaloacetic transaminase (SGOT), alkaline phosphatase, and gamma-glutamyl transferase (GGT). The effect of gNO on coagulation was determined by the prothrombin time (PT) and its derived measures of prothrombin ratio (PR) and international normalized ratio (INR). Heparinized plasma was collected at baseline and on days 1, 2, 4, and 5 of gNO administration, and on follow-up days 3, 7 and 21 and frozen at −80° C. Plasma cytokine levels were assessed using the human inflammation cytokine bead array kit (BD Bioscience, Canada). Plasma levels of angiopoietin Ang-1 and Ang-2 were determined by ELISA (R&D Systems, USA).
To assess whether gNO inhalation may cause inflammation or endothelial activation cytokines and the vascular endothelium activation factors Ang-1 and Ang-2 were quantified in peripheral plasma at baseline at various time points thereafter.

MRSA biofilm = settings: 200 ppm gNO for eight hours (1,600 ppm hours); cited from earlier work
Klebsiella sp.#3 = settings: 200 ppm gNO, saline; cited from earlier work
S. aureus (Clinical) = settings: 200 ppm gNO, saline; cited from earlier work
[3] = system: chronic, non-healing wound; settings: topical 200 ppm gNO, cited from earlier work

[N]=O [gNO, nitric oxide]
LD100 (S. maltophilia): 4 h
Latent Period (S. maltophilia): 2 h
−2.5 Log10 (S. maltophilia): 2.8 hours
bactericidal effect [1]: complete bactericidal effect on all microorganisms tested
reduction in CFU/mL ([1]; every bacteria challenged): ≥ 3 log10
NO2 level [2]: 2.6 ppm
increase of SpMet levels [2]: at least 5%
subjects exceeding 7% SpMet [2]: 35%
LD100 (Group B Streptococci): 2 h
Latent Period (Group B Streptococci): 1 h
−2.5 Log10 (Group B Streptococci): 1.5 hours
LD100 (E. Coli): 5 h
Latent Period (E. Coli): 3 h
−2.5 Log10 (E. Coli): 4.2 hours
Ang-2/Ang-1 ratio (Ang-1 and Ang-2): not affected
plasma Ang-1 (Ang-1 and Ang-2): unaffected
plasma Ang-2 (Ang-1 and Ang-2): not affected
MRSA in biofilm (MRSA biofilm): shown to reduce MRSA
LD100 (Klebsiella sp.#3): 6 h
Latent Period (Klebsiella sp.#3): 3 h
−2.5 Log10 (Klebsiella sp.#3): 5.1 hours
LD100 (S. aureus (Clinical)): 4 h
Latent Period (S. aureus (Clinical)): 3 h
−2.5 Log10 (S. aureus (Clinical)): 3.7 hours
reduction of wound size ([3]; at one week): 42%
biofilm on wound ([3]; within the first three days of treatment): no longer visibly present
